Data on two molecules can be found in US20250313549A1, “HERBICIDAL DERIVATIVES” (SYNGENTA CROP PROTECTION AG, priority 2021, published 2025).

Structures are written as SMILES.

Type in all cases: in vivo
Assay [1] has as its system Echinochloa crus-galli (ECHCG). Nature of the assay: Post-emergence test, herbicidal damage. The following applies: sprayed after 8 days cultivation, 1000 g/ha, evaluated after 13 days. The method, then:
(§1) Seeds of a variety of test species are sown in standard soil in pots (Amaranthus retoflexus (AMARE), Echinochloa crus-galli (ECHCG), Amaranthus palmeri (AMAPA), Setaria faberi (SETFA), Zea mays (ZEAMX), Ipomoea hederacea (IPOHE)). After 8 days cultivation under controlled conditions in a glasshouse (at 24° C./16° C., day/night; 14 hours light; 65% humidity), the plants are sprayed with an aqueous spray solution derived from the formulation of the technical active ingredient in acetone/water (50:50) solution containing 0.5% Tween 20 (polyoxyethylene sorbitan monolaurate, CAS RN 9005-64-5). Compounds are applied at 1000 g/ha unless otherwise stated. The test plants are then grown in a glasshouse under controlled conditions in a glasshouse (at 24° C./16° C., day/night; 14 hours light; 65% humidity) and watered twice daily. After 13 days the test is evaluated for the percentage damage caused to the plant. The biological activities are shown in the following table on a five-point scale (5=81-100%; 4=61-80%; 3=41-60%; 2=21-40%; 1=10-20%; 0=0%; -=not tested).

Assay [2] concerns Setaria faberi (SETFA). As to the kind of experiment: Post-emergence test, herbicidal damage. Conditions: sprayed after 8 days cultivation, 1000 g/ha, evaluated after 13 days. The method, then:
as §1

Assay [3] has as its system Amaranthus retoflexus (AMARE). As to the kind of experiment: Post-emergence test, herbicidal damage. Conditions: sprayed after 8 days cultivation, 1000 g/ha, evaluated after 13 days. As for the experimental part: as §1
The subject of assay [4] is Amaranthus palmeri (AMAPA). Nature of the assay: Post-emergence test, herbicidal damage. Conditions: sprayed after 8 days cultivation, 1000 g/ha, evaluated after 13 days. The method, then:
as §1

The subject of assay [5] is Zea mays (ZEAMX). As to the kind of experiment: Post-emergence test, herbicidal damage. Conditions: sprayed after 8 days cultivation, 1000 g/ha, evaluated after 13 days. As for the experimental part:
as §1

Assay [6] has as its system Ipomoea hederacea (IPOHE). Nature of the assay: Post-emergence test, herbicidal damage. The following applies: sprayed after 8 days cultivation, 1000 g/ha, evaluated after 13 days. The method, then:
as §1

In assay [7] the test system is Zea mays (ZEAMX). As to the kind of experiment: Pre-emergence test, herbicidal damage. The following applies: 1000 g/ha, evaluated after 13 days.
For assay [8], the system named is Ipomoea hederacea (IPOHE). As to the kind of experiment: Pre-emergence test, herbicidal damage. The following applies: 1000 g/ha, evaluated after 13 days.
Assay [9] deals with Echinochloa crus-galli (ECHCG). As to the kind of experiment: Pre-emergence test, herbicidal damage. The following applies: 1000 g/ha, evaluated after 13 days.
The test system of assay [10] is Setaria faberi (SETFA). Nature of the assay: Pre-emergence test, herbicidal damage. Conditions: 1000 g/ha, evaluated after 13 days.
Assay [11] relates to Amaranthus retoflexus (AMARE). Nature of the assay: Pre-emergence test, herbicidal damage. Conditions: 1000 g/ha, evaluated after 13 days.
Assay [12] deals with Amaranthus palmeri (AMAPA). As to the kind of experiment: Pre-emergence test, herbicidal damage. The following applies: 1000 g/ha, evaluated after 13 days.

On to `CCOC(=O)c1nn(-c2ccc(OC(F)F)nc2)c2cccc(Br)c2c1=O` [Compound 36, ethyl 5-bromo-1-[6-(difluoromethoxy)-3-pyridyl]-4-oxo-cinnoline-3-carboxylate], for which the “percentage damage caused to the plant, ECHCG” value in [1] and in assay [9] was 0 (0=0%) throughout. Besides, the “percentage damage caused to the plant, SETFA” value in the assay with Setaria faberi (SETFA) [2] and in the assay on Setaria faberi (SETFA) [10] was 1 (1=10-20%) in each case. Moreover, the “percentage damage caused to the plant, AMARE” value in assay [3] was 2 (2=21-40%); in [11] it was 0 (0=0%). Also, the “percentage damage caused to the plant, AMAPA” value was 0 (0=0%) in assay [4] and 1 (1=10-20%) in [12]. Besides, the “percentage damage caused to the plant, ZEAMX” value in the assay with Zea mays (ZEAMX) [5] was 0 (0=0%); in the assay on Zea mays (ZEAMX) [7] it was 1 (1=10-20%). Further, the “percentage damage caused to the plant, IPOHE” value was 1 (1=10-20%) in assay [6] and 0 (0=0%) in assay [8].

Regarding `CCOC(=O)c1nn(-c2ncc(Cl)cn2)c2cccc(Br)c2c1=O` [Compound 34, ethyl 5-bromo-1-(5-chloropyrimidin-2-yl)-4-oxo-cinnoline-3-carboxylate], the “percentage damage caused to the plant, ECHCG” value in [1] and in assay [9] was 0 (0=0%) throughout. Besides, the results for the “percentage damage caused to the plant, SETFA” value in the assay on Setaria faberi (SETFA) [2] and in the assay with Setaria faberi (SETFA) [10] were 2 (2=21-40%) and 1 (1=10-20%), respectively. Further, the “percentage damage caused to the plant, AMARE” value in assay [3] is 3 (3=41-60%); in assay [11], 0 (0=0%). Also, the “percentage damage caused to the plant, AMAPA” value in [4] and in assay [12] was 1 (1=10-20%) in each case. Further, the “percentage damage caused to the plant, ZEAMX” value in the assay with Zea mays (ZEAMX) [5] was 1 (1=10-20%); in the assay on Zea mays (ZEAMX) [7], 0 (0=0%). Also, the “percentage damage caused to the plant, IPOHE” value in [6] is given as 3 (3=41-60%); in assay [8] it was 0 (0=0%).
